Assay results published in PubChem BioAssay AID1963426 (Molecular Pharmacology Branch, DTP, NCI, 2024).
Several values for one entry are separate records, joined by “and”; a condition that tells them apart may be missing. Identical values can stand only once. One block for each molecule: values may come before it.

Tested on: 186277-243-T-J2-PDC complex spheroid growth, % test/control
Assay: Anticancer human tumor 186277-243-T-J2-PDC patient-derived colon adenocarcinoma cell line growth inhibition [Asc]
Conditions: for viability, T/C: stronger effect = lower value
Procedure, shortened: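 Spheroid model: tumor line + HUVEC + hMSC. Single agents and combinations; top conc. at/near clinical Cmax (10 microM if undetermined), half-log dilutions. DMSO stocks at 800-fold test concentration.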

[1] = curve of first compound, second compound 0.01 µM
[2] = curve of first compound, second compound 0.0316 µM
[3] = curve of first compound, second compound 0.1 µM
[4] = curve of first compound, second compound 0.316 µM
[5] = curve of first compound, second compound 1 µM
[6] = second compound 0.01 µM, first compound 0.00949 µM
[7] = second compound 0.01 µM, first compound 0.03 µM
[8] = second compound 0.01 µM, first compound 0.0949 µM
[9] = second compound 0.01 µM, first compound 0.3 µM
[10] = second compound 0.0316 µM, first compound 0.00949 µM
[11] = second compound 0.0316 µM, first compound 0.03 µM
[12] = second compound 0.0316 µM, first compound 0.0949 µM
[13] = second compound 0.0316 µM, first compound 0.3 µM
[14] = second compound 0.1 µM, first compound 0.00949 µM
[15] = second compound 0.1 µM, first compound 0.03 µM
[16] = second compound 0.1 µM, first compound 0.0949 µM
[17] = second compound 0.1 µM, first compound 0.3 µM
[18] = second compound 0.316 µM, first compound 0.00949 µM
[19] = second compound 0.316 µM, first compound 0.03 µM
[20] = second compound 0.316 µM, first compound 0.0949 µM
[21] = second compound 0.316 µM, first compound 0.3 µM
[22] = second compound 1 µM, first compound 0.00949 µM
[23] = second compound 1 µM, first compound 0.03 µM
[24] = second compound 1 µM, first compound 0.0949 µM
[25] = second compound 1 µM, first compound 0.3 µM
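Note: spheroids exposed to agents for 7 days.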
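Throughout, for viability, T/C: 100% = DMSO vehicle control wells.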

- IC50 [1]: > 3000 nM
- IC50 [2]: > 3000 nM
- IC50 [3]: > 3000 nM
- IC50 [4]: > 3000 nM
- IC50 [5]: > 3000 nM
SMILES: Cc1nc(N2CCC3(CC2)COC(C)C3N)c(CO)nc1Sc1ccnc(N)c1Cl (configuration not stated) + CNC(C)C(=O)NC1CN(S(=O)(=O)c2cccc(S(=O)(=O)N3CCC4CCC(C(=O)NC(c5ccccc5)c5ccccc5)N4C(=O)C(NC(=O)C(C)NC)C3)c2)CCC2CCC(C(=O)NC(c3ccccc3)c3ccccc3)N2C1=O
- viability, T/C [6]: 106%
- viability, T/C [7]: 102%
- viability, T/C [8]: 112%
- viability, T/C [9]: 93%
- viability, T/C (second compound 0.01 µM, first compound 0.949 µM): 97.8%
- viability, T/C (second compound 0.01 µM, first compound 3 µM): 106%
- viability, T/C [10]: 98.8%
- viability, T/C [11]: 111%
- viability, T/C [12]: 107%
- viability, T/C [13]: 91.6%
- viability, T/C (second compound 0.0316 µM, first compound 0.949 µM): 104%
- viability, T/C (second compound 0.0316 µM, first compound 3 µM): 104%
- viability, T/C [14]: 107%
- viability, T/C [15]: 101%
- viability, T/C [16]: 103%
- viability, T/C [17]: 97.7%
- viability, T/C (second compound 0.1 µM, first compound 0.949 µM): 102%
- viability, T/C (second compound 0.1 µM, first compound 3 µM): 119%
- viability, T/C [18]: 96%
- viability, T/C [19]: 104%
- viability, T/C [20]: 106%
- viability, T/C [21]: 103%
- viability, T/C (second compound 0.316 µM, first compound 0.949 µM): 101%
- viability, T/C (second compound 0.316 µM, first compound 3 µM): 100%
- viability, T/C [22]: 112%
- viability, T/C [23]: 110%
- viability, T/C [24]: 99.6%
- viability, T/C [25]: 102%
- viability, T/C (second compound 1 µM, first compound 0.949 µM): 105%
- viability, T/C (second compound 1 µM, first compound 3 µM): 101%

- IC50 [1]: 192 nM
- IC50 [2]: 204 nM
- IC50 [3]: 210 nM
- IC50 [4]: 194 nM
- IC50 [5]: 178 nM
SMILES: NC(=O)C(=Cn1cnc(-c2cc(C(F)(F)F)cc(C(F)(F)F)c2)n1)c1cncnc1 + CNC(C)C(=O)NC1CN(S(=O)(=O)c2cccc(S(=O)(=O)N3CCC4CCC(C(=O)NC(c5ccccc5)c5ccccc5)N4C(=O)C(NC(=O)C(C)NC)C3)c2)CCC2CCC(C(=O)NC(c3ccccc3)c3ccccc3)N2C1=O
- viability, T/C (second compound 0.01 µM, first compound 0.000949 µM): 127%
- viability, T/C (second compound 0.01 µM, first compound 0.003 µM): 102%
- viability, T/C [6]: 98.9%
- viability, T/C [7]: 128%
- viability, T/C [8]: 90.3%
- viability, T/C [9]: 24.3%
- viability, T/C (second compound 0.0316 µM, first compound 0.000949 µM): 105%
- viability, T/C (second compound 0.0316 µM, first compound 0.003 µM): 113%
- viability, T/C [10]: 93.8%
- viability, T/C [11]: 109%
- viability, T/C [12]: 96.9%
- viability, T/C [13]: 26.4%
- viability, T/C (second compound 0.1 µM, first compound 0.000949 µM): 114%
- viability, T/C (second compound 0.1 µM, first compound 0.003 µM): 109%
- viability, T/C [14]: 113%
- viability, T/C [15]: 118%
- viability, T/C [16]: 107%
- viability, T/C [17]: 24.6%
- viability, T/C (second compound 0.316 µM, first compound 0.000949 µM): 103%
- viability, T/C (second compound 0.316 µM, first compound 0.003 µM): 107%
- viability, T/C [18]: 110%
- viability, T/C [19]: 111%
- viability, T/C [20]: 97.8%
- viability, T/C [21]: 20.3%
- viability, T/C (second compound 1 µM, first compound 0.000949 µM): 93.6%
- viability, T/C (second compound 1 µM, first compound 0.003 µM): 108%
- viability, T/C [22]: 113%
- viability, T/C [23]: 111%
- viability, T/C [24]: 85.8%
- viability, T/C [25]: 20.2%

- IC50 (curve of compound): 161 nM and 141 nM and 218 nM
SMILES: NC(=O)C(=Cn1cnc(-c2cc(C(F)(F)F)cc(C(F)(F)F)c2)n1)c1cncnc1
- viability, T/C (compound 0.000949 µM): 99.3% and 89.8% and 97.7%
- viability, T/C (compound 0.003 µM): 80.2% and 78.8% and 94.8%
- viability, T/C (compound 0.00949 µM): 96.9% and 100% and 103%
- viability, T/C (compound 0.03 µM): 96.2% and 77.8% and 106%
- viability, T/C (compound 0.0949 µM): 81.6% and 71.7% and 101%
- viability, T/C (compound 0.3 µM): 12.6% and 11.8% and 30.5%

- IC50 (curve of first compound, second compound 0.03 µM): 4750 nM
- IC50 (curve of first compound, second compound 0.0949 µM): 4630 nM
- IC50 (curve of first compound, second compound 0.3 µM): 4000 nM
- IC50 (curve of first compound, second compound 0.949 µM): 1610 nM
- IC50 (curve of first compound, second compound 3 µM): < 31.6 nM
SMILES: C=C(F)C(=O)N1CCN(c2nc(OCC3CCCN3C)nc3c2CCN(c2cccc4cccc(Cl)c24)C3)CC1CC#N (configuration not stated) + CCN1C(C(=O)NC23CCC(C(=O)O)(CC2)CC3)C(c2cccc(Cl)c2F)C2(C(=O)Nc3cc(Cl)ccc32)C12CCCCC2
- viability, T/C (second compound 0.03 µM, first compound 0.0316 µM): 123%
- viability, T/C (second compound 0.03 µM, first compound 0.1 µM): 107%
- viability, T/C (second compound 0.03 µM, first compound 0.316 µM): 109%
- viability, T/C (second compound 0.03 µM, first compound 1 µM): 99.8%
- viability, T/C (second compound 0.03 µM, first compound 3.16 µM): 79.5%
- viability, T/C (second compound 0.03 µM, first compound 10 µM): 0.44%
- viability, T/C (second compound 0.0949 µM, first compound 0.0316 µM): 92.7%
- viability, T/C (second compound 0.0949 µM, first compound 0.1 µM): 92.5%
- viability, T/C (second compound 0.0949 µM, first compound 0.316 µM): 103%
- viability, T/C (second compound 0.0949 µM, first compound 1 µM): 88.6%
- viability, T/C (second compound 0.0949 µM, first compound 3.16 µM): 75.2%
- viability, T/C (second compound 0.0949 µM, first compound 10 µM): 0.22%
- viability, T/C (second compound 0.3 µM, first compound 0.0316 µM): 76.3%
- viability, T/C (second compound 0.3 µM, first compound 0.1 µM): 82.5%
- viability, T/C (second compound 0.3 µM, first compound 0.316 µM): 86.1%
- viability, T/C (second compound 0.3 µM, first compound 1 µM): 73.2%
- viability, T/C (second compound 0.3 µM, first compound 3.16 µM): 63.7%
- viability, T/C (second compound 0.3 µM, first compound 10 µM): 0.17%
- viability, T/C (second compound 0.949 µM, first compound 0.0316 µM): 58.2%
- viability, T/C (second compound 0.949 µM, first compound 0.1 µM): 57.5%
- viability, T/C (second compound 0.949 µM, first compound 0.316 µM): 61.4%
- viability, T/C (second compound 0.949 µM, first compound 1 µM): 64%
- viability, T/C (second compound 0.949 µM, first compound 3.16 µM): 35.6%
- viability, T/C (second compound 0.949 µM, first compound 10 µM): 0.22%
- viability, T/C (second compound 3 µM, first compound 0.0316 µM): 38.4%
- viability, T/C (second compound 3 µM, first compound 0.1 µM): 37.3%
- viability, T/C (second compound 3 µM, first compound 0.316 µM): 38.8%
- viability, T/C (second compound 3 µM, first compound 1 µM): 37%
- viability, T/C (second compound 3 µM, first compound 3.16 µM): 23.6%
- viability, T/C (second compound 3 µM, first compound 10 µM): 0.69%
